Experimental data from ChEMBL document CHEMBL4477270, “Design, synthesis, and protein methyltransferase activity of a unique set of constrained amine containing compounds” (Bioorg Med Chem Lett, 2016).

Columns and labels:
[1] = target: Histone-lysine N-methyltransferase 2A (Homo sapiens) (UniProt Q03164); assay: Inhibition of MLL1 (unknown origin) using biotin-labeled histone substrate assessed as residual activity at 50 uM in presence of [3H-Me]SAM by scintillation proximity assay relative to control
[2] = target: Histone-lysine N-methyltransferase SETDB1 (Homo sapiens) (UniProt Q15047); assay: Inhibition of SETDB1 (unknown origin) using biotin-labeled histone substrate assessed as residual activity at 50 uM in presence of [3H-Me]SAM by scintillation proximity assay relative to control
[3] = target: Histone-lysine N-methyltransferase EZH2 (Homo sapiens) (UniProt Q15910); assay: Inhibition of EZH2 (unknown origin) using biotin-labeled histone substrate assessed as residual activity at 50 uM in presence of [3H-Me]SAM by scintillation proximity assay relative to control
[4] = target: Histone-lysine N-methyltransferase SUV39H2 (Homo sapiens) (UniProt Q9H5I1); assay: Inhibition of SUV39H2 (unknown origin) using biotin-labeled histone substrate assessed as residual activity at 50 uM in presence of [3H-Me]SAM by scintillation proximity assay relative to control
[5] = target: T1, Histone-lysine N-methyltransferase NSD3 (Homo sapiens) (UniProt Q9BZ95); assay: Inhibition of NSD3 (unknown origin) using biotin-labeled histone substrate assessed as residual activity at 50 uM in presence of [3H-Me]SAM by scintillation proximity assay relative to control
T1 sequence (whole entry): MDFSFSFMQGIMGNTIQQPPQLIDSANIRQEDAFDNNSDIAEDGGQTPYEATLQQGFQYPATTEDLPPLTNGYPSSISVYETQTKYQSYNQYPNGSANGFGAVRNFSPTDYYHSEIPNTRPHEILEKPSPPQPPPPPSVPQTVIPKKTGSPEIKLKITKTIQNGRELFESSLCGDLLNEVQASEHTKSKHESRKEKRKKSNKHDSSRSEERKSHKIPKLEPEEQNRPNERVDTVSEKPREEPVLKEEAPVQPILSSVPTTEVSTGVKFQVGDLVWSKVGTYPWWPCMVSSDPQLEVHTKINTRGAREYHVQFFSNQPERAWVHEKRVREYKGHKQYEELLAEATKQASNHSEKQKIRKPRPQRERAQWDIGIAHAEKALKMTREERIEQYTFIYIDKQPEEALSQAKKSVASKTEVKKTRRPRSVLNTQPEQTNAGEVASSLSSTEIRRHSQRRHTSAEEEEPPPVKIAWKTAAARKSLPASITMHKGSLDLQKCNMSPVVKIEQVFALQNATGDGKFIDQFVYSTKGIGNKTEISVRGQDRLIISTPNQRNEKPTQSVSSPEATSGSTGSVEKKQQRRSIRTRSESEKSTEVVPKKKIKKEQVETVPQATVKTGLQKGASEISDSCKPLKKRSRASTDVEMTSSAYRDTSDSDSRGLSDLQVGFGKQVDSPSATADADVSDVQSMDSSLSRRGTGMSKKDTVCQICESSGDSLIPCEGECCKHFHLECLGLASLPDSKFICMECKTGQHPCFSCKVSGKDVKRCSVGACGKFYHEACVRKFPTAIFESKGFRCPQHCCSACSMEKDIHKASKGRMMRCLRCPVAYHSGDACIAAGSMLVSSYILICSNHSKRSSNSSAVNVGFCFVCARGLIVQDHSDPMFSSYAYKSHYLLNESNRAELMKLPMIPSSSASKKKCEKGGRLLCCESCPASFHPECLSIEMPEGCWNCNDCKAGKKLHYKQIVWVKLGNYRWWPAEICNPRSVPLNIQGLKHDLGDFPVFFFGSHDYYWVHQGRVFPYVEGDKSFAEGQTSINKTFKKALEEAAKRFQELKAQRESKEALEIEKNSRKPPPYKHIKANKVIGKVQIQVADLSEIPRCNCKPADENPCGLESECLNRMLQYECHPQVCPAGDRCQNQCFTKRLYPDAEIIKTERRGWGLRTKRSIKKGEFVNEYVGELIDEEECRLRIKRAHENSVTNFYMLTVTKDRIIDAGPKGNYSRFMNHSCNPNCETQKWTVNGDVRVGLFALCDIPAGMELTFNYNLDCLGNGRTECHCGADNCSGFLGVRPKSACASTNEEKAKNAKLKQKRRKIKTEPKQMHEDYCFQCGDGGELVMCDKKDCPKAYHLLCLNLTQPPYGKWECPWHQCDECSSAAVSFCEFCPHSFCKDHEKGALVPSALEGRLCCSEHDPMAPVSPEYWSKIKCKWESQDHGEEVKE

[6] = target: Histone-lysine N-methyltransferase PRDM9 (Homo sapiens) (UniProt Q9NQV7); assay: Inhibition of PRDM9 (unknown origin) using biotin-labeled histone substrate assessed as residual activity at 50 uM in presence of [3H-Me]SAM by scintillation proximity assay relative to control
[7] = target: Histone-lysine N-methyltransferase SETD2 (Homo sapiens) (UniProt Q9BYW2); assay: Inhibition of N-terminal His6-tagged human SETD2 (1347 to 1711 residues) expressed in Escherichia coli Rosseta-2(DE3) cells assessed as residual activity at 50 uM using biotinylated-histone H3 (20 to 50 residues) as substrate in presence of [3H-Me]SAM by scintillation proximity assay relative to control
[8] = target: T2, Histone-lysine N-methyltransferase SUV39H1 (Homo sapiens) (UniProt O43463); assay: Inhibition of SUV39H1 (unknown origin) using biotin-labeled histone substrate assessed as residual activity at 50 uM in presence of [3H-Me]SAM by scintillation proximity assay relative to control
T2 sequence (whole entry): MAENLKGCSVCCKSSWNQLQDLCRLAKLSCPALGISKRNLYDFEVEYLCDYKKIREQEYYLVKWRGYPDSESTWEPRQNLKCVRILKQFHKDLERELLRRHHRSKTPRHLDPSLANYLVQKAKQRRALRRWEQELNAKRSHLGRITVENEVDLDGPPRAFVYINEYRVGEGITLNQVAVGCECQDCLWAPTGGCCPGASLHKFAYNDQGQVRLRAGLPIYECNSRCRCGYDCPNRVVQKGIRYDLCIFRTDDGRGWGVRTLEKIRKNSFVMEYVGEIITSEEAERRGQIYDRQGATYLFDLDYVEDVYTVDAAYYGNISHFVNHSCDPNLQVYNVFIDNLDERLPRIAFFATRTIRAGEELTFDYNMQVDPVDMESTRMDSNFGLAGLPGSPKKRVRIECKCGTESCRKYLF

[9] = target: Histone-lysine N-methyltransferase KMT5B (Homo sapiens) (UniProt Q4FZB7); assay: Inhibition of SUV420H1 (unknown origin) using biotin-labeled histone substrate assessed as residual activity at 50 uM in presence of [3H-Me]SAM by scintillation proximity assay relative to control
[10] = target: Protein N-lysine methyltransferase METTL21A (Homo sapiens) (UniProt Q8WXB1); assay: Inhibition of METTL21A (unknown origin) using biotin-labeled histone substrate assessed as residual activity at 50 uM in presence of [3H-Me]SAM by scintillation proximity assay relative to control
Chain of Protein N-lysine methyltransferase METTL21A (Homo sapiens) (Q8WXB1 whole entry): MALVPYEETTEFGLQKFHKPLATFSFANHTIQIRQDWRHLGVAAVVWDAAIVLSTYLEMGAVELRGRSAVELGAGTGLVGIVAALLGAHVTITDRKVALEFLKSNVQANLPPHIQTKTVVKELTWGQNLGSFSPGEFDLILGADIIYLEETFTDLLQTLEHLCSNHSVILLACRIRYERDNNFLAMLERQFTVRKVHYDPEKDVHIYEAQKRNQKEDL

Chain of Histone-lysine N-methyltransferase PRDM9 (Homo sapiens) (Q9NQV7 whole entry, the tested form may be a part): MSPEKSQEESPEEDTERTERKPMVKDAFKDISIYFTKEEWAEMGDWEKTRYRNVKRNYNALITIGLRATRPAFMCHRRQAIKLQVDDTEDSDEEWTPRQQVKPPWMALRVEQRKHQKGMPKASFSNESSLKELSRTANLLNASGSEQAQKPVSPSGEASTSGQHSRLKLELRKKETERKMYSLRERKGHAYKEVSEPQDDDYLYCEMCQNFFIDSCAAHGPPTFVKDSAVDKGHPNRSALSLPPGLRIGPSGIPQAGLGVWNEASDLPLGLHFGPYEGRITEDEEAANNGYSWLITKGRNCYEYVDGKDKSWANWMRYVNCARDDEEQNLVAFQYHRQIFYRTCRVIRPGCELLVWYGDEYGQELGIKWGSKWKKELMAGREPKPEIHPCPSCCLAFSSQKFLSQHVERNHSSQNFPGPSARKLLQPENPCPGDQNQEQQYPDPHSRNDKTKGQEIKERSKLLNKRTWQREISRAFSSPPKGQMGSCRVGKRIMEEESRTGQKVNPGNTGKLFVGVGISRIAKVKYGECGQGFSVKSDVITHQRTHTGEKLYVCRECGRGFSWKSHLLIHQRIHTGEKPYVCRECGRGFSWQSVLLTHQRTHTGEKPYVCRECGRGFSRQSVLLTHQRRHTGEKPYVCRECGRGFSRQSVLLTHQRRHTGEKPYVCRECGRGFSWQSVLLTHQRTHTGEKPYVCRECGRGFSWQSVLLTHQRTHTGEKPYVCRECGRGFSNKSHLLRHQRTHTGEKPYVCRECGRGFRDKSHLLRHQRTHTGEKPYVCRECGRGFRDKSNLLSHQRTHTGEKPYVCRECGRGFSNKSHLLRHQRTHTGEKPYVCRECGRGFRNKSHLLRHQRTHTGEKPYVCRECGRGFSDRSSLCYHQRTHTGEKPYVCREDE
Chain of Histone-lysine N-methyltransferase EZH2 (Homo sapiens) (Q15910 whole entry, looked up): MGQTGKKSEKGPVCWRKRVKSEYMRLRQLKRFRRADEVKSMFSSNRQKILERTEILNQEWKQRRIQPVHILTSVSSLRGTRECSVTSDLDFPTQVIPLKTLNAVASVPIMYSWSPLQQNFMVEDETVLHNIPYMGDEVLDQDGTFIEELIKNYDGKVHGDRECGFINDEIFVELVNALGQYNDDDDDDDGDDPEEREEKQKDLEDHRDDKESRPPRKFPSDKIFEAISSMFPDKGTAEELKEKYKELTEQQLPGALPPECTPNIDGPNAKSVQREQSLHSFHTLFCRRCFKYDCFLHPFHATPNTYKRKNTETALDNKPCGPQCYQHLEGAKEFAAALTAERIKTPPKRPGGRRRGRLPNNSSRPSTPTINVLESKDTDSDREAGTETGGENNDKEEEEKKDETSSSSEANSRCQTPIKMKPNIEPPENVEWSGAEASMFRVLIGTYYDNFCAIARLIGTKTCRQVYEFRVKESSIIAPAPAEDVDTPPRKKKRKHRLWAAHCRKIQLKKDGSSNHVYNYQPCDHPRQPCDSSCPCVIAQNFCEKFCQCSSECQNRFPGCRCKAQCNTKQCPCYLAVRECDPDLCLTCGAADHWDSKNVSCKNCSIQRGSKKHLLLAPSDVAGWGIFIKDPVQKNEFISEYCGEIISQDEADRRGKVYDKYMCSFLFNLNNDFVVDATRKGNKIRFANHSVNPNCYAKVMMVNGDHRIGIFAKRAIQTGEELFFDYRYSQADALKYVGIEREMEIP
Chain of Histone-lysine N-methyltransferase SUV39H2 (Homo sapiens) (Q9H5I1 whole entry): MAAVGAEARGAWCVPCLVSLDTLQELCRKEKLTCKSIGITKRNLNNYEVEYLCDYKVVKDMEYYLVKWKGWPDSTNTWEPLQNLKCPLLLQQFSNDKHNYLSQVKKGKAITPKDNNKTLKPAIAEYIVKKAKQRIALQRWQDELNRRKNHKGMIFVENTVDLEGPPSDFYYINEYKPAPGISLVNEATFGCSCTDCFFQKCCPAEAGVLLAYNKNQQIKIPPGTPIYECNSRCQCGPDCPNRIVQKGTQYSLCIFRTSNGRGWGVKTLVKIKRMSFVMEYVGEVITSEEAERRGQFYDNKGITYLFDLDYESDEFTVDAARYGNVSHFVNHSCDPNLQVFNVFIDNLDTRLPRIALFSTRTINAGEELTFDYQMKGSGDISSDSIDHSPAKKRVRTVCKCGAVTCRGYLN
Chain of Histone-lysine N-methyltransferase KMT5B (Homo sapiens) (Q4FZB7 whole entry, looked up): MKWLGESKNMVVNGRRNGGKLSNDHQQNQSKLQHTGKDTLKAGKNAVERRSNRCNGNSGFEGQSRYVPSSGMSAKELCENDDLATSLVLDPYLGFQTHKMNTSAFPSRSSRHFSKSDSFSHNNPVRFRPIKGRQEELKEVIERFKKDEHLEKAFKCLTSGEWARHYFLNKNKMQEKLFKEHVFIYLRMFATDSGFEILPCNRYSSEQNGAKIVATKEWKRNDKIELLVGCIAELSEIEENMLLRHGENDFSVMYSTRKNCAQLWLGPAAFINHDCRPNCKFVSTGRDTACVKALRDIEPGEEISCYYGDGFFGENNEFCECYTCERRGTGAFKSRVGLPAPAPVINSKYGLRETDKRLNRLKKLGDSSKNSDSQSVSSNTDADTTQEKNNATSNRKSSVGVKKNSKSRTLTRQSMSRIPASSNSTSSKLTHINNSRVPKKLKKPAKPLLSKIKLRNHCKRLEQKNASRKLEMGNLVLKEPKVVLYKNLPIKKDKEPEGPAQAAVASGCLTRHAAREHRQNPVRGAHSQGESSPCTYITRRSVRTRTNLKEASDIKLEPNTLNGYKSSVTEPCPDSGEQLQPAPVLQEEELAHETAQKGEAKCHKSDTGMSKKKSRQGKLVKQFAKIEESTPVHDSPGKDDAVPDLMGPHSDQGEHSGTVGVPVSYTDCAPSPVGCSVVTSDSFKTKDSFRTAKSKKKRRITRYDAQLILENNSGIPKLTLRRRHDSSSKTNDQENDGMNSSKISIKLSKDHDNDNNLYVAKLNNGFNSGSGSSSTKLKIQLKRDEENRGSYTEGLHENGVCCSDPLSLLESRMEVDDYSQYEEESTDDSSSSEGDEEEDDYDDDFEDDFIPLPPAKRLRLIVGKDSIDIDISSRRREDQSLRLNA

Activity [1] [%]	Activity [2] [%]	Activity [3] [%]	Activity [4] [%]	Activity [5] [%]	Activity [6] [%]	Activity [7] [%]	Activity [8] [%]	Activity [9] [%]	Activity [10] [%]	SMILES
106	98	88	99	95	108	107	88	108	92	CN1CCCC12CCCN(C(=O)c1cccc(Br)c1)C2 (stereo not given)
103	102	88	95	93	98	107	106	112	97	O=C(c1cccc(Br)c1)N1CCCC2(CCNCC2)C1
110	108	96	91	111	101	105	90	88	97	O=C(c1cccc(Br)c1)N1CCCC2(CCCCN2)C1 (stereo not given)
105	110	88	95	98	105	107	99	105	98	O=C(c1cccc(Br)c1)N1CCC2(CCNCC2)CC1
95	106	90	84	99	93	99	97	101	100	CN1CCCC2(CCCN(C(=O)c3cccc(Br)c3)C2)C1 (stereo not given)
109	105	91	91	100	111	111	102	106	100	CN1CCCCC12CCCN(C(=O)c1cccc(Br)c1)C2 (stereo not given)

Further lines, the molecule ahead of its results:

SMILES	Activity [1] [%]	Activity [2] [%]	Activity [3] [%]	Activity [4] [%]	Activity [5] [%]	Activity [6] [%]	Activity [7] [%]	Activity [8] [%]	Activity [9] [%]	Activity [10] [%]
CN1CCC2(CCCN2C(=O)c2cccc(Br)c2)CC1	105	94	93	97	96	98	98	101	98	99
CN1CCCC2(CCCN2C(=O)c2cccc(Br)c2)C1 (stereo not given)	99	109	90	92	102	94	109	91	101	100
CN1CC[C@H]2CN(C(=O)c3cccc(Br)c3)C[C@H]21	105	102	87	101	92	106	108	82	83	89
O=C(c1cccc(Br)c1)N1CC[C@@H]2[C@@H](CC3CCCCN32)C1 (stereo not given in full)	109	97	86	113	98	101	102	94	100	99
O=C(c1cccc(Br)c1)N1C[C@@H]2CC3CCCN3[C@@H]2C1 (stereo not given in full)	88	96	90	102	106	97	110	99	109	100
O=C(c1cccc(Br)c1)N1CC[C@H]2NCC[C@H]2C1	110	100	98	83	107	109	107	104	107	99
O=C(c1cccc(Br)c1)N1C[C@@H]2CC3CCCCN3[C@@H]2C1 (stereo not given in full)	109	101	92	108	94	107	105	107	102	91
CN1CCC2(CC1)CCN(C(=O)c1cccc(Br)c1)CC2	99	108	87	116	110	106	105	102	103	105
O=C(c1cccc(Br)c1)N1C[C@@H]2CCN[C@@H]2C1	104	107	85	88	94	107	110	77	106	96
O=C(c1cccc(Br)c1)N1CCC2CNCC2C1 (stereo not given)	108	95	98	95	102	108	111	92	104	100
CN1C[C@H]2CCCN(C(=O)c3cccc(Br)c3)[C@H]2C1	102	101	91	77	92	103	106	97	106	93
CN1CCCCC12CCN(C(=O)c1cccc(Br)c1)CC2	115	108	88	111	97	105	101	103	104	97
